Test results taken from patent publication US20250340538A1, “IMIDAZOLONE DERIVATIVES AS INHIBITORS OF PROTEIN KINASES IN PARTICULAR DYRK1A, CLK1 AND/OR CLK4” (PERHA PHARMACEUTICALS, priority 2021, published 2025).

Tests used:
CLK2 = biological target: T1, CLK2 (Homo sapiens, UniProt P49760); test: Radiometric protein kinase assay (33PanQinase Activity Assay), CLK2; assay type: biochemical; conditions: read-out: IC50 on CLK2 (most potent CLK2 inhibitors)
T1 construct: GST-fusion or His-tag (not specified per kinase); purchased ProQinase GmbH; host or cells: Sf9 insect cells or E. coli (not specified per kinase)
Description: (§1) Assays were performed by ProQinase GmbH (Engesserstr. 4, D-79108 Freiburg, Germany. www.proqinase.com). The IC50 profile of all compounds was determined using 12 protein kinases (CDK2/cyclin E, CK1ε, CLK1, 2, 3, 4, DYRK1A, 1B, 2, 3, 4, GSK3β).
(§2) The compounds were provided as […] in 100% DMSO. Prior to testing, the 1 μM stock solutions were subjected to a serial, semi-logarithmic dilution using 100% DMSO as a solvent. […] In the process, 90 μl H2O were added to each well of each compound dilution plate. To minimize potential precipitation, the H2O was added to each plate only a few minutes before the transfer of the compound solutions into the assay plates. The plate was shaken thoroughly, resulting in a compound dilution plate/10% DMSO.
(§3) For the assays (see below), 5 μL solution from each well of the compound dilution plates/10% DMSO were transferred into the assay plates. The final volume of the assay was 50 μL. All compounds were tested at 10 final assay concentrations in the range from 10 μM to 30 nM. The final DMSO concentration in the reaction cocktails was 1% in all cases.
(§4) All protein kinases provided by ProQinase were expressed in Sf9 insect cells or in E. coli as recombinant GST-fusion proteins or His-tagged proteins, either as full-length or enzymatically active fragments. All kinases were produced from human cDNAs and purified by either GSH-affinity chromatography or immobilized metal. Affinity tags were removed from a number of kinases during purification. The purity of the protein kinases was examined by SDS-PAGE/Coomassie staining, the identity was checked by mass spectroscopy.
(§5) A radiometric protein kinase assay (33PanQinase® Activity Assay) was used for measuring the kinase activity of the 12 protein kinases. All kinase assays were performed in 96-well FlashPlates™ from PerkinElmer (Boston, MA, USA) in a 50 μL reaction volume. The reaction cocktail was pipetted in four steps in the following order: • 25 μL of assay buffer (standard buffer/[γ-^33P]-ATP), • 10 μL of ATP solution (in H2O), • 5 μL of test compound (in 10% DMSO), • 10 μL of enzyme/substrate mixture.
(§6) The reaction cocktails were incubated at 30° C. for 60 minutes. The reaction was stopped with 50 μL of 2% (v/v) H3PO4, plates were aspirated and washed two times with 200 μL 0.9% (w/v) NaCl. Incorporation of ^33Pi was determined with a microplate scintillation counter (Microbeta, Wallac). The IC50 values for all compounds were calculated from the dose response curves
(§7) As a parameter for assay quality, the Z′-factor (Zhang et al., J. Biomol. Screen. 2: 67-73, 1999) for the low and high controls of each assay plate (n=8) was used. ProQinase's criterion for repetition of an assay plate is a Z′-factor below 0.4 (Iversen et al., J. Biomol. Screen. 3: 247-252, 2006).

DYRK3 = biological target: T2, DYRK3 (Homo sapiens, UniProt O43781); test: Radiometric protein kinase assay (33PanQinase Activity Assay), DYRK3; assay type: biochemical; conditions: read-out: IC50 on DYRK3 (most potent DYRK3 inhibitors)
T2 construct: GST-fusion or His-tag (not specified per kinase); purchased ProQinase GmbH; host or cells: Sf9 insect cells or E. coli (not specified per kinase)
T2 sequence (O43781 1-588): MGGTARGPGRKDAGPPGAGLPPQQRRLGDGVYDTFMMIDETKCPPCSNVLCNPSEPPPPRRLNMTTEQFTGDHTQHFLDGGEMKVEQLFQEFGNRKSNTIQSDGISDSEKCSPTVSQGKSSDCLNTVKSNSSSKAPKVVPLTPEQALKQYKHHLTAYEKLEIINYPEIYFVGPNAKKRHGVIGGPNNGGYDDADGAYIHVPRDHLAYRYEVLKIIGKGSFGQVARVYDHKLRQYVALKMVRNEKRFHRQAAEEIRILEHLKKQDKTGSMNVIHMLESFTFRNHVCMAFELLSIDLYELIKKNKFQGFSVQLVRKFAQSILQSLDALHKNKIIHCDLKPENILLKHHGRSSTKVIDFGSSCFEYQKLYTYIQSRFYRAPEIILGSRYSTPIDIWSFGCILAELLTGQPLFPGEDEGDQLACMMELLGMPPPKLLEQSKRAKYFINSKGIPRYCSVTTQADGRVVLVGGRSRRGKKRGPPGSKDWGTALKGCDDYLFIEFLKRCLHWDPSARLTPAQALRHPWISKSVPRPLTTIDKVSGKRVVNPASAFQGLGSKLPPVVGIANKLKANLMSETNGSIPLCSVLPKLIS
Description: as §1, §2, §3, §4, §5, §6, §7

T1 sequence (P49760 whole entry, the tested form may be a part): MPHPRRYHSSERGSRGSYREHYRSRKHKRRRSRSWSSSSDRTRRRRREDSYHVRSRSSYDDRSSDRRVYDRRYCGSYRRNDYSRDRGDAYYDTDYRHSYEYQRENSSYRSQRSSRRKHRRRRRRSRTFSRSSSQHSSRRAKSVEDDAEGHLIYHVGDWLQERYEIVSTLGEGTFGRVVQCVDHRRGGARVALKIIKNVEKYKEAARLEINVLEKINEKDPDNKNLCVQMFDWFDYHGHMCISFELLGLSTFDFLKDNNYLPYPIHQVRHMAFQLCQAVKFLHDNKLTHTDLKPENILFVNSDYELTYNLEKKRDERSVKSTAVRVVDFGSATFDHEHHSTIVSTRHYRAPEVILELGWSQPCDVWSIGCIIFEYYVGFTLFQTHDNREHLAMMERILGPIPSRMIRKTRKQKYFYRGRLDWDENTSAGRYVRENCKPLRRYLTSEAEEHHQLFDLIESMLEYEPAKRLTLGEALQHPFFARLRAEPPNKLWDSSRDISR

IC50 (CLK2): ≤ 100 nM | IC50 (DYRK3): ≤ 250 nM
Structure (SMILES): O=C1NC(NC23CC4CC(CC(O)(C4)C2)C3)=N/C1=C\c1ccc2ncccc2c1 [Compound 50, (4Z)-2-[(3-hydroxy-1-adamantyl)amino]-4-(6-quinolylmethylene)-1H-imidazol-5-one]
